From patent publication US8017727B2, “Conjugates of membrane translocating agents and pharmaceutically active agents” (Merrion Research III Limited, priority 1999, dated 2011) come the findings set out here.

One data set concerns the target T1, kappa receptor (Rattus norvegicus, UniProt P34975).
T1 construct: from tissue; host or cells: rat brain homogenate
Kind of data set: Competition for binding of a radiolabelled kappa peptide to rat brain homogenates. The conditions noted are these: for opioid activity post conjugation: compared to unconjugated H-ffir-NH2 or to the ELAN207 conjugate. The protocol: The integrity of the opioid peptide was evaluated post conjugation to assess suitability for inclusion in further studies. Opioid activity was assessed in vitro using a competition assay (competition for binding of a radiolabelled kappa peptide to rat brain homogenates).

The nature of data set [1]: 3H tissue distribution of kappa peptide conjugates, conscious rat model. Type of data set: in vivo, Wistar rats. Particulars: potency corrected; for Kidney, % of administered dose / Plasma, % of administered dose / Total Recovery, % of administered dose: t=6 h. The protocol: The tissue was weighed and a representative sample, (ca 0.1 g), was removed to a scintillation vial. The tissue was solubilzed with 1 ml of BTS-450 (an organic tissue solubliser). Ten ml of scintillation fluid was added and the radioactivity was measured. The radioactivity was expressed as dpm/initial weight of tissue.

A short description of data set [2]: Systemic 3H bioavailability of kappa peptide conjugates, conscious rat model (plasma). The format is in vivo, Wistar rats. On the procedure: The possible enhancing effects of ELAN094 and ELAN207 MTLPs (SEQ ID NOs 2 and 60) on intestinal absorption of the kappa peptide were examined in a conscious rat model.
The study was non-randomised, parallel group design. Wistar rats within the 250-350 g weight range were used. All animals were fasted for a period of 16 h prior to study initiation. Water was available at all times.
Intravenous injection of 10 μCi of ^3H-kappa peptide-Kaffiralin-1 (plain kappa peptide) (tail vein injection).
Intraduodenal instillation of 100 μCi of ^3H-kappa peptide-Elan094 (Analysed). The Elan094 ligand contains a membrane translocating sequence.
Intraduodenal instillation of 100 μCi of ^3H-kappa peptide-Elan207 (Analysed). The Elan207 ligand contains a membrane translocating sequence.
Intraduodenal instillation of 100 μCi of ^3H-kappa peptide-Kaffiralin-1.
The plasma (100-250 μl) was made up to 1 ml with BTS-450 (an organic tissue solubiliser) and incubated for 1 hour. Ten ml of Scintillation fluid was added and the radioactivity was measured.
The study was a non-randomised, parallel group biostudy designed to evaluate the systemic bioavailability of tritium labelled kappa peptide conjugates after intra-duodenal instillation in the conscious rat model. Each rat only received one treatment and the plasma samples were analysed for tritium content. The calculation of AUClast, Amax, tmax, Volume of Distribution (V d) and Clearance was based on base line corrected data. The absolute bioavailability was calculated using potency corrected data.

The mark [3] stands for this setting: IC50, Table 11, first IC50 column.
[4] abbreviates: IV, 10 μCi, listed as 3H Kappa peptide-Kaffiralin-1.
[5] abbreviates: intraduodenal (ID), 100 μCi, Elan207 = original group.

Read-outs that look alike come from different tables or passages of the source.

`CC[C@@H](C)[C@@H](NC(=O)[C@@H](Cc1ccccc1)NC(=O)[C@H](N)Cc1ccccc1)C(=O)N[C@H](CCCNC(=N)N)C(=O)NCCCC[C@H](NC(=O)[C@@H]1CCCN1C(=O)[C@H](C)NC(=O)[C@H](C)NC(=O)[C@H](CC(C)C)NC(=O)[C@H](CC(C)C)NC(=O)[C@@H](NC(=O)[C@@H]1CCCN1C(=O)[C@H](CC(C)C)NC(=O)[C@H](CC(C)C)NC(=O)[C@@H](NC(=O)[C@H](C)NC(=O)[C@H](C)NC(=O)[C@H](C)NC(=O)[C@H](CCCCN)NC(=O)[C@H](CCCCN)NC(=O)[C@@H](N)CCCCNC(=O)CCCCCNC(=O)CCCC[C@@H]1SC[C@@H]2NC(=O)N[C@@H]21)C(C)C)C(C)C)C(N)=O` [P37-114]: the half-inhibitory concentration (IC50) at kappa receptor (setting [3]) worked out at 0.4 nM. For the same molecule, the “opioid activity post conjugation” value on kappa receptor is “activity equivalent to that observed with ELAN207”.

Regarding `CC[C@@H](C)[C@@H](NC(=O)[C@@H](Cc1ccccc1)NC(=O)[C@H](N)Cc1ccccc1)C(=O)N[C@H](CCCNC(=N)N)C(=O)NCCCC[C@@H](NC(=O)[C@H]1CCCN1C(=O)[C@@H](C)NC(=O)[C@@H](C)NC(=O)[C@@H](CC(C)C)NC(=O)[C@@H](CC(C)C)NC(=O)[C@H](NC(=O)[C@H]1CCCN1C(=O)[C@@H](CC(C)C)NC(=O)[C@@H](CC(C)C)NC(=O)[C@H](NC(=O)[C@@H](C)NC(=O)[C@@H](C)NC(=O)[C@@H](C)NC(=O)[C@@H](CCCCN)NC(=O)[C@H](N)CCCCN)C(C)C)C(C)C)C(N)=O` [P10-114, H-kkaaavllpvllaapk(ffir-NH-e)-NH2], the IC50 is 1 nM at kappa receptor (Day 5, second of duplicates, read-out: IC50); 0.8 nM at kappa receptor (Day 82, first of triplicates, read-out: IC50); 0.8 nM at kappa receptor (Day 82, second of triplicates, read-out: IC50). In addition, the “opioid activity post conjugation” value at kappa receptor is recorded as “retained, or even enhanced”.

As for `CC[C@@H](C)[C@@H](NC(=O)[C@@H](Cc1ccccc1)NC(=O)[C@H](N)Cc1ccccc1)C(=O)N[C@H](CCCNC(=N)N)C(N)=O` [3H-Kappa peptide-Kaffiralin-1], in data set [1] (ID, 100 μCi), the “Catheter, % of administered dose” value turned out to be 0.06 ± 0.05%; the “GI Tissue, % of administered dose” value is 7.72 ± 4.98%; the “GI Washing, % of administered dose” value worked out at 15.85 ± 5.00%; the “GI contents, % of administered dose” value is on record as 37.31 ± 15.75%. In addition, in data set [1] (ID, 100 μCi), the “Liver, % of administered dose” value was 0.63 ± 0.37%; the “Total GI (% recovery from GI tissue, GI contents & GI wash)” value was 60.87 ± 16.74%; the “Kidney, % of administered dose” value was 0.16 ± 0.17%; the “Plasma, % of administered dose” value was determined as 0.06 ± 0.01%. In addition, the “Total Recovery, % of administered dose” value in data set [1] (ID, 100 μCi) is on record as 61.79 ± 16.93%. Also, in data set [1] (ID, 100 μCi, listed as 3H-Kappa peptide Kaffiralin-1), the “Plasma, % of administered dose” value is reported as 0.06±0.01%. In addition, in data set [1] (IV, 10 μCi), the “GI Tissue, % of administered dose” value came to 1.62 ± 0.41%; the “GI Washing, % of administered dose” value was found to be 1.98 ± 1.01%; the “GI contents, % of administered dose” value was 23.50 ± 11.04%; the “Liver, % of administered dose” value came out at 6.66 ± 1.77%. Moreover, in data set [1] (IV, 10 μCi), the “Total GI (% recovery from GI tissue, GI contents & GI wash)” value was 27.10 ± 11.93%; the “Kidney, % of administered dose” value stood at 0.51 ± 0.08%; the “Plasma, % of administered dose” value is given as 0.16 ± 0.03%; the “Total Recovery, % of administered dose” value was 34.43 ± 13.36%. In data set [1] (setting [4]), the “Liver, % of administered dose” value is on record as 6.66±1.77% and the “Plasma, % of administered dose” value came to 0.16±0.03%. Moreover, in data set [1] (IV, 10 μCi, listed as 3H Kappa-peptide-Kaffiralin-1), the “Total Recovery, % of administered dose” value is listed as 34.43±13.36%. In addition, in data set [2] (setting [5]), the “3H AUClast” value was 73098.43±9493.88 dpm/ml·h and the “3H Amax (maximum radioactivity)” value was found to be 70925.33±23631.28 dpm/ml. Also, in data set [2] (intravenous (IV), 10 μCi), the “3H AUClast” value is recorded as 132184.24±13288.32 dpm/ml·h and the “3H Amax (maximum radioactivity)” value stood at 903603.03±186855.31 dpm/ml. In data set [2] (rat, plasma, intraduodenal (ID), 100 μCi, potency corrected, Elan207 = original group, read-out: Absolute 3H bioavailability), the bioavailability was determined as 7.94 ± 1.92%. Moreover, in data set [2] (rat, plasma, intravenous (IV), 10 μCi), the clearance is 2.38 mL/min. Also, the Vd in data set [2] (rat, plasma, intravenous (IV), 10 μCi, read-out: Volume of Distribution) came to 0.964 ± 0.256 L.

Consider `CC[C@@H](C)[C@@H](NC(=O)[C@@H](Cc1ccccc1)NC(=O)[C@H](N)Cc1ccccc1)C(=O)N[C@H](CCCNC(=N)N)C(=O)NCCCC[C@@H](NC(=O)[C@H]1CCCN1C(=O)[C@@H](C)NC(=O)[C@@H](C)NC(=O)[C@@H](CC(C)C)NC(=O)[C@@H](CC(C)C)NC(=O)[C@H](NC(=O)[C@H]1CCCN1C(=O)[C@@H](CC(C)C)NC(=O)[C@@H](CC(C)C)NC(=O)[C@H](NC(=O)[C@@H](C)NC(=O)[C@@H](C)NC(=O)[C@@H](C)NC(=O)[C@@H](CCCCN)NC(=O)[C@@H](CCCCN)NC(=O)[C@@H](N)CCCCNC(=O)CCCCCNC(=O)CCCC[C@@H]1SC[C@@H]2NC(=O)N[C@@H]21)C(C)C)C(C)C)C(N)=O` [P34-154, H-K(biotin-LC)kkaaavllpvllaapk(ffir-NH-e)-NH2], for which the “opioid activity post conjugation” value at kappa receptor is recorded as “retained activity”.

As to `CC[C@@H](C)[C@@H](NC(=O)[C@@H](Cc1ccccc1)NC(=O)[C@H](N)Cc1ccccc1)C(=O)N[C@H](CCCNC(=N)N)C(=O)N[C@H](CCCCNC(=O)[C@H]1CCCN1C(=O)[C@@H](C)NC(=O)[C@@H](C)NC(=O)[C@@H](CC(C)C)NC(=O)[C@@H](CC(C)C)NC(=O)[C@H](NC(=O)[C@H]1CCCN1C(=O)[C@@H](CC(C)C)NC(=O)[C@@H](CC(C)C)NC(=O)[C@H](NC(=O)[C@@H](C)NC(=O)[C@@H](C)NC(=O)[C@@H](C)NC(=O)[C@@H](CCCCN)NC(=O)[C@H](N)CCCCN)C(C)C)C(C)C)C(N)=O` [P10-110, H-ffirk(kkaaavllpvllaap-NH-e)-NH2], on kappa receptor, the “opioid activity post conjugation” value is reported as “significantly reduced”.

On to `CC[C@@H](C)[C@@H](NC(=O)[C@@H](Cc1ccccc1)NC(=O)[C@H](N)Cc1ccccc1)C(=O)N[C@H](CCCNC(=N)N)C(=O)NCCCC[C@H](NC(=O)[C@@H]1CSSC[C@H](NC(=O)[C@H](CCCCN)NC(=O)[C@H](CCCCN)NC(=O)[C@@H](N)CCCCNC(=O)CCCCCNC(=O)CCCC[C@@H]2SC[C@@H]3NC(=O)N[C@@H]32)C(=O)N[C@@H](C)C(=O)N[C@@H](C)C(=O)N[C@@H](C(C)C)C(=O)N[C@@H](CC(C)C)C(=O)N[C@@H](CC(C)C)C(=O)N2CCC[C@H]2C(=O)N[C@@H](C(C)C)C(=O)N[C@@H](CC(C)C)C(=O)N[C@@H](CC(C)C)C(=O)N[C@@H](C)C(=O)N1)C(N)=O` [P37-116], for which, on kappa receptor (setting [3]), the IC50 came out at 0.2 nM. Also, the “opioid activity post conjugation” value on kappa receptor is “activity equivalent to that observed with ELAN207”.

On to `CC[C@@H](C)[C@@H](NC(=O)[C@@H](Cc1ccccc1)NC(=O)[C@H](N)Cc1ccccc1)C(=O)N[C@H](CCCNC(=N)N)C(=O)NCCCC[C@H](NC(=O)[C@@H](CCCCN)NC(=O)[C@@H](CCCCN)NC(=O)[C@@H](C)NC(=O)[C@@H](C)NC(=O)[C@@H](C)NC(=O)[C@H](NC(=O)[C@@H](CC(C)C)NC(=O)[C@@H](CC(C)C)NC(=O)[C@H]1CCCN1C(=O)[C@H](NC(=O)[C@@H](CC(C)C)NC(=O)[C@@H](CC(C)C)NC(=O)[C@@H](C)NC(=O)[C@@H](C)NC(=O)[C@H]1CCCN1C(=O)[C@@H](N)CCCCNC(=O)CCCCCNC(=O)CCCC[C@@H]1SC[C@@H]2NC(=O)N[C@@H]21)C(C)C)C(C)C)C(N)=O` [P37-115, H-K(biotin-LC)paallvpllvaaakkK(ffir-NH-e)-NH2], for which the “opioid activity post conjugation” value at kappa receptor was “activity equivalent to that observed with ELAN207”.
